Data: US6635631B2, “Iron compounds, compositions, methods of making the same and uses thereof” (Vitra Pharmaceuticals, Ltd., priority 1995, dated 2003)
“And” between values parts separate entries of the source, which are not always exact repeats. Equal values may be shown once.

How the values were obtained:
[1] = Effect on iron absorption in vivo of maltol as a diet supplement (liver iron); design: species or system Male Wistar rats; conditions: for Liver Fe: rats fed maltol 50 mg/kg by gavage on alternate days, individual animals 1-6; for Liver Fe, MEAN: rats fed maltol 50 mg/kg
Description: Male Wistar rats, housed in polyethylene cages, initially weighing 70-80 grams were given a normal powder diet and water ad libitum for two weeks prior to treatment with maltol by gavage. Provided the animal was showing normal growth, treatment by gavage with maltol at 50 mg/kg was commenced and continued on alternate days for a further two weeks. At the end of the experimental period the animals were sacrificed, the livers were excised, mass determined and the sub cellular fraction assayed for iron be electrothermal atomic absorption. […]. The iron content of the diet is 240 mg/kg of food and the daily consumption of the rats is approximately 20 g which contains 4.8 mg as iron. The content of maltol in the diet is approximately 10 mg which is a ratio of iron/maltol of 4.8/10.0 which is approximately a 1:1 molar ratio (actual 1:1 is 4.5/10/0).
The liver content and concentration of iron in the sub cellular fraction were compared with the control group fed the same diet over the month, but without maltol.

[2] = In vivo test in man: ICPOES analysis for iron in serum; conditions: for Iron concentration [Fe] (s.d.) in serum: man, with 10% excess maltol
Excerpt: A composition of the invention comprising ferric maltol chloride ([FeM]^++Cl2−) ie. a 1:1 iron:hydroxypyrone complex together with a small (10%) excess of moltol (uncomplexed hydroxypyrone).

[3] = In vivo test in man: plasma iron concentration by ICP after oral ferric monomaltol citrate; conditions: time 0 mins (resting value)
Description: A composition of the invention comprising ferric monomaltol citrate with 30 mg as iron in 5 ml of water was administered orally to a person who had fasted for 24 hours. The plasma iron concentration in the subject's bloodstream was determined by the ICP [inductively coupled plasma, (Machine Jobin Yvonne Modol 20)] technique which determines the emission spectra of elements by optical spectrometry when samples are subjected to a very hot flame. The technique is very sensitive and the accuracy and precision is less than +or −1%.

[4] = Solubility of iron complexes and mixtures (description); assay type: physicochemical; conditions: for solubility relative to the 1:3 iron/hydroxypyrone molar ratio complex: 1:1 complexes
[5] = pH and stability of solutions of the complexes (description); assay type: physicochemical; conditions: for stability in solution: buffered pH of 7
red blood cell = experiment: Initial toxicity studies: red blood cell haemolysis; assay type: cell-based; conditions: liquid formulations
[6] = Tests to determine optimum pH and molar ratios of iron:hydroxypyrone for synthesis of the 1:1 complex; assay type: physicochemical; conditions: pH 1-2
Description: Further tests to determine the optimum pH and molar ratios of iron:hydroxypyrone for synthesis of the 1:1 complex were carried out using iron:hydroxypyrone (maltol) ratios of 1:1.1, 1:1.15 and 1:1.25. For each ratio concentrations of 1M, 0.1M and 0.01M were tested. In the tests iron was used in an aqueous form.

[7] = Stability of the 1:1 molar ratio complex of iron and hydroxypyrone (visual precipitates, UV-V spectroscopy); assay type: physicochemical
Description: Various solutions of iron (III),and hydroxypyrone (ethylmaltol) were buffered to pH 7 with 50 mM morpholine propane sulphonate (MOPS) 50 mM, to pH 5 with sodium acetate (50 mM) and to pH 3 with glycine (50 mM). Iron III nitrate 9 H2O was used as a source of iron.

Cc1occc(=O)c1O [Maltol, 3-hydroxy-2-methyl-4-pyrone]
Liver Fe ([1]; iron concentration, µg per g liver): 118.8 µg/g and 113.2 µg/g and 87.3 µg/g and 165.8 µg/g and 149.2 µg/g and 123.4 µg/g
Liver Fe ([1]; total iron, mg per liver): 1.44 mg/liver and 1.14 mg/liver and 0.86 mg/liver and 1.87 mg/liver and 1.69 mg/liver and 1.25 mg/liver
Liver Fe, MEAN ([1]; mean of 6 animals (control 1.06 ± 0.25)): 1.38 ± 0.37 mg/liver
Liver Fe, MEAN ([1]; mean of 6 animals (control 120.1 ± 30.2)): 126.3 ± 27.7 µg/g
change in liver iron content versus control ([1]; rats, maltol 50 mg/kg by gavage): small but significant increase

Cc1occc(=O)c1[O-].[Cl-].[Cl-].[Fe+3] [ferric maltol chloride]
Iron concentration [Fe] (s.d.) in serum ([2]; time 0 min, n = 2): 1188.81 (17.57) ppb
Iron concentration [Fe] (s.d.) in serum ([2]; time 20 min, n = 2): 1387.66 (63.08) ppb
Iron concentration [Fe] (s.d.) in serum ([2]; time 60 min, n = 2): 1600.62 (115.83) ppb
Iron concentration [Fe] (s.d.) in serum ([2]; time 120 min, n = 1): 1312.74 (0) (n = 1) ppb

Cc1occc(=O)c1[O-].O=C([O-])CC(O)(CC(=O)O)C(=O)[O-].[Fe+3] [ferric monomaltol citrate]
iron conc (plasma) ([3]; 30 mg as iron in 5 ml water, fasted 24 hours): 1.2 µg/mL
iron conc (plasma) ([3]; 30 mg as iron): 21.8 µmol/L

Cc1occc(=O)c1[O-].[Fe+3] [ferric monomaltol]
solubility relative to the 1:3 iron/hydroxypyrone molar ratio complex [4]: approximately ten times more soluble
solubility ([4]; pH 1-2): very soluble
iron uptake ([2]; in vivo, po): taken up well
stability in solution [5]: stability for extended periods (for example six months)
natural pH ([5]; solution): approximately 2.8
red blood cell haemolysis and breakdown (red blood cell): do not cause red blood cell haemolysis and red blood cell breakdown
proportion of the solution that comprises the 1:1 complex [6]: ~80%

O=S(=O)([O-])[O-].[Fe+2] [ferrous sulphate, reference compound]
stability in solution [5]: precipitate very rapidly

CCc1occc(=O)c1[O-].[Fe+3] [iron ethyl maltol]
solubility relative to the 1:3 iron/hydroxypyrone molar ratio complex [4]: approximately ten times more soluble
stability of solutions ([7]; 0.1M, 0.01M and 0.001M, pH 3, 5 and 7): stable for up to two months
formation of ferric triethylmaltol (1:3 complex) ([7]; wide concentration range, up to pH 7): no ferric triethylmaltol is found even at pH 7
